Experimental data as given in ChEMBL document CHEMBL5055685, “Discovery of the First Potent IDO1/IDO2 Dual Inhibitors: A Promising Strategy for Cancer Immunotherapy” (J Med Chem, 2021).
Active and inactive are the calls of the source. The rule behind the calls is not given here.

How the values were obtained:
[1] = Inhibition of IDO1/IDO2 in IFNgamma/LPS-stimulated human PBMCs assessed as reduction in kynurenine formation pretreated with compound for 15 mins followed by IFNgamma/LPS stimulation by LC-MS/MS analysis; type: tissue-based; details: PBMC
[2] = target: T1, Indoleamine 2,3-dioxygenase 1 (Homo sapiens, UniProt P14902)
T1 sequence (P14902 whole entry): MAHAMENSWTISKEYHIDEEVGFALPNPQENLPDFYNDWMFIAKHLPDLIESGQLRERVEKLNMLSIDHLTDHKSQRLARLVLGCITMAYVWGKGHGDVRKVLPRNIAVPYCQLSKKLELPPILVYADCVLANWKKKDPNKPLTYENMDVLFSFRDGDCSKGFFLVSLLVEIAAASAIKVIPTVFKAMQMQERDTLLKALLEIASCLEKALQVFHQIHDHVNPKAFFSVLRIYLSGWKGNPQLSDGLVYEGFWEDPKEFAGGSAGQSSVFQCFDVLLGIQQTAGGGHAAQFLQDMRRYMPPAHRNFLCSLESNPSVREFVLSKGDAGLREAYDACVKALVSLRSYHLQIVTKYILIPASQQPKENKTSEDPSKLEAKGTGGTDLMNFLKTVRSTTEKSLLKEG

[3] = AUC (0 to infinity) in Sprague-Dawley rat at 5 mg/kg, iv; type: ADME, organism-based; design: time infinity, dose 5 mg/kg, route iv; details: in vivo
HT-29 = assay: Cytotoxicity against human HT-29 cells assessed as reduction in cell viability by CCK8 assay; type: functional, cell-based
[4] = AUC (0 to t) in Sprague-Dawley rat at 5 mg/kg, iv; type: ADME, organism-based; design: dose 5 mg/kg, route iv; details: in vivo
[5] = target: T1, Indoleamine 2,3-dioxygenase 1; assay: Inhibition of IDO1 (unknown origin) assessed as reduction in kynurenine formation using L-tryptophan as substrate by methylene blue reagent based assay
[6] = target: T2, Indoleamine 2,3-dioxygenase 2 (Homo sapiens, UniProt Q6ZQW0); assay: Inhibition of IDO2 (unknown origin) assessed as reduction in kynurenine formation using L-tryptophan as substrate by methylene blue reagent based assay
T2 sequence (Q6ZQW0 whole entry): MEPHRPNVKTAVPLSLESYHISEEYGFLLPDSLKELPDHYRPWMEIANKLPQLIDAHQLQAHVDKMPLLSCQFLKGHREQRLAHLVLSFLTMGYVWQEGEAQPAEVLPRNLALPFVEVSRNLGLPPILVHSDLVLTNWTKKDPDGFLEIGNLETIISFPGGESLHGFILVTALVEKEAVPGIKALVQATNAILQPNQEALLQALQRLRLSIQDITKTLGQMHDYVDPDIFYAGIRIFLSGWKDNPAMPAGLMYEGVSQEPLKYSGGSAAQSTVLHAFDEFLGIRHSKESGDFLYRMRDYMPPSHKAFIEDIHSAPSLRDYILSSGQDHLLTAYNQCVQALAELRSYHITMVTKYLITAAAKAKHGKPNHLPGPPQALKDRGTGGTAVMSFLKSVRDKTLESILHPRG

PBMC = assay: Inhibition of IDO1/IDO2 in IFNgamma/LPS-stimulated human PBMCs assessed as reduction in kynurenine formation at 0.0001 to 10 uM pretreated with compound for 15 mins followed by IFNgamma/LPS stimulation by LC-MS/MS analysis; type: tissue-based; details: dose 0.0001-10 µM
HeLa = assay: Cytotoxicity against human HeLa cells assessed as reduction in cell viability at 1 to 10 uM by CCK8 assay; type: functional, cell-based; details: dose 1-10 µM
CT26 [7] = assay: Cytotoxicity against mouse CT26 cells assessed as reduction in cell viability by CCK8 assay; type: functional, cell-based
HCT-116 [8] = assay: Cytotoxicity against human HCT-116 cells assessed as reduction in cell viability by CCK8 assay; type: functional, cell-based
[9] = Half life in Sprague-Dawley rat at 5 mg/kg, iv; type: ADME, organism-based; details: in vivo
[10] = Volume of distribution at steady state in Sprague-Dawley rat at 5 mg/kg, iv; type: ADME, organism-based; details: in vivo, read-out: Vdss
[11] = AUC (0 to t) in Sprague-Dawley rat at 50 mg/kg, po; type: ADME, organism-based; design: dose 50 mg/kg, route po; details: in vivo
[12] = AUC (0 to infinity) in Sprague-Dawley rat at 50 mg/kg, po; type: ADME, organism-based; design: time infinity, dose 50 mg/kg, route po; details: in vivo
[13] = Cmax in Sprague-Dawley rat at 50 mg/kg, po; type: ADME, organism-based; design: dose 50 mg/kg, route po; details: in vivo
[14] = Tmax in Sprague-Dawley rat at 50 mg/kg, po; type: ADME, organism-based; details: in vivo
[15] = Half life in Sprague-Dawley rat at 50 mg/kg, po; type: ADME, organism-based; details: in vivo
[16] = Oral bioavailability in Sprague-Dawley rat at 50 mg/kg; type: ADME, organism-based; details: in vivo
[17] = Metabolic stability in human liver microsomes assessed as rate constant; type: ADME, Microsome
[18] = Half life in human liver microsomes; type: ADME, Microsome
[19] = Intrinsic clearance in human liver microsomes; type: ADME, Microsome; details: read-out: CLH
[20] = Metabolic stability in monkey liver microsomes assessed as rate constant; type: ADME, Macaca mulatta, Microsome; details: rhesus monkey
[21] = Half life in monkey liver microsomes; type: ADME, Macaca mulatta, Microsome; details: rhesus monkey
[22] = Intrinsic clearance in monkey liver microsomes; type: ADME, Macaca mulatta, Microsome; details: rhesus monkey, read-out: CLH
[23] = Metabolic stability in dog liver microsomes assessed as rate constant; type: ADME, Canis lupus familiaris, Microsome
[24] = Half life in dog liver microsomes assessed as rate constant; type: ADME, Canis lupus familiaris, Microsome
[25] = Clearance in dog liver microsomes; type: ADME, Canis lupus familiaris, Microsome; details: read-out: CLH
[26] = Metabolic stability in rat liver microsomes assessed as rate constant; type: ADME, Microsome
[27] = Half life in rat liver microsomes; type: ADME, Microsome
[28] = Clearance in rat liver microsomes; type: ADME, Microsome; details: read-out: CLH
[29] = Metabolic stability in mouse liver microsomes assessed as rate constant; type: ADME, Microsome
[30] = Half life in mouse liver microsomes; type: ADME, Microsome
[31] = Clearance in mouse liver microsomes; type: ADME, Microsome; details: read-out: CLH
[32] = Apparent permeability across apical to basolateral side in human Caco-2 cells assessed as drug recovery; type: ADME, cell-based; details: read-out: Drug recovery
[33] = Apparent permeability across basolateral to apical side in human Caco-2 cells assessed as drug recovery; type: ADME, cell-based; details: read-out: Drug recovery
[34] = Apparent permeability across apical to basolateral side in human Caco-2 cells; type: ADME, cell-based
[35] = Apparent permeability across basolateral to apical side in human Caco-2 cells; type: ADME, cell-based
[36] = Efflux ratio of apparent permeability across basolateral to apical over apical to basolateral side in human Caco-2 cells; type: ADME, cell-based
[37] = Protein binding in human plasma assessed as fraction unbound by equilibrium dialysis; type: ADME, cell-free
[38] = Protein binding in human plasma by equilibrium dialysis; type: ADME, cell-free; details: read-out: PPB (converted)
[39] = Protein binding in monkey plasma assessed as fraction unbound by equilibrium dialysis; type: ADME, cell-free, Macaca mulatta; details: rhesus monkey
[40] = Protein binding in monkey plasma by equilibrium dialysis by equilibrium dialysis; type: ADME, cell-free, Macaca mulatta; details: rhesus monkey, read-out: PPB (converted)
[41] = Protein binding in Beagle dog plasma assessed as fraction unbound by equilibrium dialysis; type: ADME, cell-free, Canis lupus familiaris
[42] = Protein binding in Beagle dog plasma by equilibrium dialysis; type: ADME, cell-free, Canis lupus familiaris; details: read-out: PPB (converted)
[43] = Protein binding in Sprague-Dawley rat plasma assessed as fraction unbound by equilibrium dialysis; type: ADME, cell-free
[44] = Protein binding in Sprague-Dawley rat plasma by equilibrium dialysis; type: ADME, cell-free; details: read-out: PPB (converted)
[45] = Protein binding in ICR mouse plasma assessed as fraction unbound by equilibrium dialysis; type: ADME, cell-free
[46] = Protein binding in ICR mouse plasma by equilibrium dialysis; type: ADME, cell-free; details: read-out: PPB (converted)
Rattus norvegicus [47] = assay: Toxicity in rat assessed as rat death at […]; type: organism-based; details: in vivo
Rattus norvegicus [48] = assay: Toxicity in rat assessed as weight loss at […]; type: organism-based; details: in vivo
[49] = Toxicity in rat assessed as maximum tolerated dose; type: organism-based; details: in vivo
[50] = target: Voltage-gated inwardly rectifying potassium channel KCNH2 (Homo sapiens, UniProt Q12809); assay: Inhibition of human ERG
Chain of Voltage-gated inwardly rectifying potassium channel KCNH2 (Q12809 whole entry): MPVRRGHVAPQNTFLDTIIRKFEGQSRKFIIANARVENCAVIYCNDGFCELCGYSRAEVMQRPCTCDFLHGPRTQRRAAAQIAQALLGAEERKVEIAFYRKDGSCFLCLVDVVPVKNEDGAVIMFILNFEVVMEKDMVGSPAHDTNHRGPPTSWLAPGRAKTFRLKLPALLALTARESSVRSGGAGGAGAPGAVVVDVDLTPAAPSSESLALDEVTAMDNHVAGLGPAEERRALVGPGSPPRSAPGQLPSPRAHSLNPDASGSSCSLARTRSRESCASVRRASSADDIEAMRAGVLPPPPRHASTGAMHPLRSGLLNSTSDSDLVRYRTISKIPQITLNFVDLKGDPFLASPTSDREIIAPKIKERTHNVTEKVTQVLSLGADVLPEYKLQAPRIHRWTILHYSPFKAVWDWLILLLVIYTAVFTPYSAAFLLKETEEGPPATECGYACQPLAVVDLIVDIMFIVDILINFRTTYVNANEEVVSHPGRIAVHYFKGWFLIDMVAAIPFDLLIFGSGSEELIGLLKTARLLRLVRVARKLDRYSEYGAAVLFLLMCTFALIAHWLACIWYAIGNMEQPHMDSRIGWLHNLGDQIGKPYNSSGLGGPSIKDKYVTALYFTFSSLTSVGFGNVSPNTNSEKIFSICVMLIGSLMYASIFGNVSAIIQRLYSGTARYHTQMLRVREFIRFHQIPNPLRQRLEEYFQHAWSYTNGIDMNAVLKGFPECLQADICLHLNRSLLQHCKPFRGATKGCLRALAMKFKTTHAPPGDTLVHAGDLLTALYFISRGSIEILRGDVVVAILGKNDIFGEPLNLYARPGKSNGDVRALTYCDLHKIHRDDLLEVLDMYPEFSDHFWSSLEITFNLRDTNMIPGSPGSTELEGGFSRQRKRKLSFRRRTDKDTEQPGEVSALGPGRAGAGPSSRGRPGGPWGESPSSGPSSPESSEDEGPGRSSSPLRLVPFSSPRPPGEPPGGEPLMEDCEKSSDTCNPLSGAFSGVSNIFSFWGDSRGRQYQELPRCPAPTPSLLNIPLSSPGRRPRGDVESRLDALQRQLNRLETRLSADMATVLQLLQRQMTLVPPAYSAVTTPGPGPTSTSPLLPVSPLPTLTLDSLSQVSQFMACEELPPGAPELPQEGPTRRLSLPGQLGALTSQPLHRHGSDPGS

CT26 [51] = assay: Antitumor activity against mouse CT26 cells implanted in BALB/c mouse assessed as tumor growth inhibition at 50 mg/kg, ip bid for 28 days by vernier caliper method relative to control; type: functional; details: CT26, 672 h, time 28 day, read-out: TGI
Mus musculus [52] = assay: Toxicity in BALB/c mouse implanted with mouse CT26 cells assessed as weight loss at 50 mg/kg, ip bid for 28 days; type: organism-based; details: in vivo, 672 h, time 28 day
Mus musculus [53] = assay: Toxicity in BALB/c mouse implanted with mouse CT26 cells assessed as adverse effect at 50 mg/kg, ip bid for 28 days; type: organism-based; details: in vivo, 672 h, time 28 day
HCT-116 [54] = assay: Antitumor activity against human HCT-116 cells xenografted in BALB/c nude mouse assessed as tumor growth inhibition at 300 mg/kg, ig bid for 21 days by vernier caliper method; type: functional, organism-based; details: time 21.0 day
Mus musculus [55] = assay: In vivo inhibition of IDO2 in BALB/c mouse xenografted with human HCT-116 cells assessed as suppression of IDO2 expression in tumor by immunohistochemical assay; type: functional, organism-based
Mus musculus [56] = assay: In vivo inhibition of IDO1/IDO2 in BALB/c mouse xenografted with human HCT-116 cells assessed as downregulation of Foxp3 expression in tumor by immunohistochemical assay; type: functional, organism-based
Mus musculus [57] = assay: In vivo inhibition of TDO in BALB/c mouse xenografted with human HCT-116 cells assessed as suppression of TDO expression in tumor by immunohistochemical assay; type: functional, organism-based
Mus musculus [58] = assay: In vivo inhibition of IDO2 in BALB/c mouse xenografted with human HCT-116 cells assessed as suppression of IDO2 mRNA expression in tumor by quantitative RT-PCR analysis; type: functional, organism-based
Mus musculus [59] = assay: In vivo inhibition of IDO1/IDO2 in BALB/c mouse xenografted with human HCT-116 cells assessed as downregulation of Foxp3 mRNA expression in tumor by quantitative RT-PCR analysis; type: functional, organism-based
Mus musculus [60] = assay: In vivo inhibition of TDO in BALB/c mouse xenografted with human HCT-116 cells assessed as suppression of TDO mRNA expression in tumor by quantitative RT-PCR analysis; type: functional, organism-based

CCOC(=O)N1CCC2(CC1)C[C@H](NC(=O)c1cccc3cn[nH]c13)c1cc(Br)ccc1O2
IC50 [1]: 0.0054 µM

C[C@]1([C@H](O)C[C@H]2c3c(F)cccc3-c3cncn32)CC[C@H](O)CC1
IC50 [2]: 0.007 µM

CC(O)c1cn(CCNc2nonc2/C(=N/O)Nc2ccc(F)c(Br)c2)nn1 (configuration not stated)
AUC [3]: 5670 ng·h/mL
IC50 (HT-29): 46 µM
AUC(0-t) [4]: 5590 ng·h/mL
IC50 [5]: 0.053 µM
IC50 [6]: 0.362 µM
inhibition (PBMC): Active
Activity (HeLa): Active
IC50 (CT26 [7]): 27.5 µM
IC50 (HCT-116 [8]): 23.7 µM
half-life [9]: 48 min
Vd [10]: 1.2 L/kg
AUC(0-t) [11]: 11300 ng·h/mL
AUC(0-inf) [12]: 11500 ng·h/mL
Cmax [13]: 2730 ng/mL
Tmax [14]: 25.2 min
half-life [15]: 78 min
bioavailability [16]: 20.4%
k el [17]: 4.35e-05 s⁻¹
half-life [18]: 272 min
microsomal CLint [19]: 5.22 µL/min/mg
k el [20]: 0.000168 s⁻¹
half-life [21]: 68.8 min
microsomal CLint [22]: 20.2 µL/min/mg
k el [23]: 0.00218 s⁻¹
half-life [24]: 5.31 min
microsomal CLint [25]: 261 µL/min/mg
k el [26]: 0.00218 s⁻¹
half-life [27]: 21.6 min
microsomal CLint [28]: 64.2 µL/min/mg
K [29]: 0.0168 min⁻¹
half-life [30]: 41.2 min
microsomal CLint [31]: 33.6 µL/min/mg
recovery [32]: 95.5%
recovery [33]: 116%
Papp A→B [34]: 13.8 ×10⁻⁶ cm/s
Papp B→A [35]: 80.9 ×10⁻⁶ cm/s
efflux ratio [36]: 5.9
fraction unbound [37]: 0.0192
fraction unbound [38]: 0.0192
fraction unbound [39]: 0.0371
fraction unbound [40]: 0.0371
fraction unbound [41]: 0.0239
fraction unbound [42]: 0.0239
fraction unbound [43]: 0.044
fraction unbound [44]: 0.04
fraction unbound [45]: 0.0584
fraction unbound [46]: 0.0584
Activity (Rattus norvegicus [47]): Non-Toxic
Activity (Rattus norvegicus [48]): Non-Toxic
MTD [49]: 2 mg/kg
IC50 [50]: > 30 µM
inhibition in vivo at 50 mg/kg (CT26 [51]): 66.3%
Activity (Mus musculus [52]): Non-Toxic
Activity (Mus musculus [53]): Non-Toxic

NS(=O)(=O)NCCNc1nonc1/C(=N/O)Nc1ccc(F)c(Br)c1 [EPACADOSTAT]
IC50 (HT-29): 63 µM
IC50 (CT26 [7]): 47.1 µM
IC50 (HCT-116 [8]): 37.1 µM
inhibition in vivo at 50 mg/kg (CT26 [51]): 49.4%
Activity (HCT-116 [54]): inactive
inhibition (Mus musculus [55]): inactive
inhibition (Mus musculus [56]): inactive
inhibition (Mus musculus [57]): inactive
inhibition (Mus musculus [58]): inactive
inhibition (Mus musculus [59]): inactive
inhibition (Mus musculus [60]): inactive
